Data set [1] has as its system Anandamide Membrane Transporter (AMT). The data set can be described thus: Anandamide uptake by RBL-2H3 cells. In kind it is cell-based. As to the method:
Assay for the Anandamide Membrane Transporter (AMT)
The effect of the compounds on the uptake of anandamide by the RBL-2H3 cells was studied as described (Di Marzo et al., 2002). Cells were incubated with [^14C]anandamide (4 μM) for 5 minutes at 37° C., in the presence or absence of varying concentrations of the inhibitors. Residual [^14C]anandamide in the incubation media after extraction with CHCl3/CH3OH (2:1 by volume) was used as a measure of the anandamide that was taken up by cells. Data are expressed as the concentration that produces 50% of inhibition of anandamide uptake (IC50) calculated with GraphPad.

For the next data set, the target named is T1, CB1 receptors (Mus musculus, UniProt P47746).
T1 construct: using mouse brain membranes containing CB1 receptors; from tissue; host or cells: mouse brain membranes
T1 sequence (P47746 whole entry): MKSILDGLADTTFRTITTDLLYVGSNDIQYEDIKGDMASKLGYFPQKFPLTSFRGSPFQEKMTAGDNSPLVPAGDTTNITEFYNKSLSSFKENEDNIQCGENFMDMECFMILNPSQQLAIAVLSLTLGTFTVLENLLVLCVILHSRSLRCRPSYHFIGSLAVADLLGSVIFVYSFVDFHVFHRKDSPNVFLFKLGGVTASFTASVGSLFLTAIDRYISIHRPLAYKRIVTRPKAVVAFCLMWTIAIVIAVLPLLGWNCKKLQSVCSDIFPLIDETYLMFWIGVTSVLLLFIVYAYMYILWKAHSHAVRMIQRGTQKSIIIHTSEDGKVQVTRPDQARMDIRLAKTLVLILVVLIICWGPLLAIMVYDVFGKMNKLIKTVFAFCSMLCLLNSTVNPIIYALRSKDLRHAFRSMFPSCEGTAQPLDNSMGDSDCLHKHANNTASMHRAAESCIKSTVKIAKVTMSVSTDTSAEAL
The data set can be described thus: [35S]GTP-γ-S binding, mouse brain membranes. In kind it is biochemical. As to the method: These assays were performed as previously described (Thomas et al., 2005), using mouse brain membranes containing CB1 receptors or CHO cells stably over-expressing the human recombinant CB2 receptor (10 μg/ml protein), 0.7 nM [^35S]GTP-γ-S and 320 μM GDP, and a final assay volume of 250 μl. Results were compared to the potent CB1 and CB2 receptor agonist CP55940, purchased from Cayman Chemicals, Ann Arbour, Mich., USA.
(GTPγS is a poorly hydrolysed GTP analogue; its binding reports G protein activation.)

Data set [2] addresses T2, human recombinant CB1 receptor (Homo sapiens, UniProt P21554). In kind it is binding. Further details: purchased Perkin-Elmer; host or cells: COS cells.
Data set [3] deals with T3, human recombinant CB2 receptor (Homo sapiens, UniProt P34972). The data set can be described thus: CB2 binding, [3H]CP55,940 displacement, membranes from transfected COS cells. Further details: purchased Perkin-Elmer; host or cells: COS cells.
T3 sequence (P34972 whole entry): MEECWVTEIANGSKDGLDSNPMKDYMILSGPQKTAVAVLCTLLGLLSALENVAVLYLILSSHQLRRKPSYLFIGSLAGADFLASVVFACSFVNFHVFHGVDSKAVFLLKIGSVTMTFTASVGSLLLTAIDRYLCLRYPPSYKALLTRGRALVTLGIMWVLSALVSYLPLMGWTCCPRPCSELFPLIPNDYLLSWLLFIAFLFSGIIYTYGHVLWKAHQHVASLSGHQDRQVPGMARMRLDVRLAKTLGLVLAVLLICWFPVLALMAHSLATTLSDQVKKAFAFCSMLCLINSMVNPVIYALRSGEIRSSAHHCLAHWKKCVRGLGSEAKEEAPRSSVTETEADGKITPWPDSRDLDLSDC
For data set [4], the target named is T2, human recombinant CB1 receptor. The data set can be described thus: Forskolin-induced cAMP formation in CHO cells over-expressing hCB1. In kind it is cell-based. Further details: expressed in transfected cells; host or cells: CHO cells. Conditions: read-out: hCB1 EC50. Here is the method: (§1) After incubation, 800 μl of methanol were added, cells were extracted and cyclic AMP was determined with a cyclic AMP assay kit (Amersham, UK), in accordance with the supplier's recommendations.
(cAMP levels reflect the balance of adenylyl cyclase and phosphodiesterase activity.)

The target in data set [5] is T3, human recombinant CB2 receptor. Nature of the data set: Forskolin-induced cAMP formation in CHO cells over-expressing hCB2. In kind it is cell-based. Further details: expressed in transfected cells; host or cells: CHO cells (stably over-expressing). The note with it: CHO hCB2. Here is the method: as §1
For data set [6] the target is unchanged. Nature of the data set: [35S]GTP-γ-S binding, CHO cells over-expressing hCB2. In kind it is biochemical. Further details: expressed in transfected cells; host or cells: CHO cells (stably over-expressing). The source says: Results were compared to the potent CB1 and CB2 receptor agonist CP55940, purchased from Cayman Chemicals, Ann Arbour, Mich., USA.
In data set [7] the target is T4, Fatty Acid Amide Hydrolase (FAAH) (Rattus norvegicus, UniProt P97612).
T4 sequence (P97612 1-579): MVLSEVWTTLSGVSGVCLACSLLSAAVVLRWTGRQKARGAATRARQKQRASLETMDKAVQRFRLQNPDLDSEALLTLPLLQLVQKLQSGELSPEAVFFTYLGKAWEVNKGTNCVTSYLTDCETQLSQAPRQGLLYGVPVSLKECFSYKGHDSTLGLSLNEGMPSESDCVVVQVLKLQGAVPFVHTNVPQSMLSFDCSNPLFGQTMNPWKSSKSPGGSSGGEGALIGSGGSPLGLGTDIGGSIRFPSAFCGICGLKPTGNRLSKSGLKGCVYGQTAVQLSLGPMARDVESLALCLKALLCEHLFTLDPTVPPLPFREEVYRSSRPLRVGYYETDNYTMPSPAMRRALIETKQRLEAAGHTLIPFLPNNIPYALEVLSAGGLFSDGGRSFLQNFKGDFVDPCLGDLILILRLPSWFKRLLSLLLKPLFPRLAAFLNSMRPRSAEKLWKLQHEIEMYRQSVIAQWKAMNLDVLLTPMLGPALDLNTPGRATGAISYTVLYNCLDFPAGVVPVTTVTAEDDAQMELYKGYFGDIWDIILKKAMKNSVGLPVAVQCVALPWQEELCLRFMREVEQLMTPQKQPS
Nature of the data set: biochemical. As to the method:
Assay for Fatty Acid Amide Hydrolase (FAAH)
The effect of compounds on the enzymatic hydrolysis of [^14C]anandamide (6 μM) was studied using membranes prepared from rat brain incubated with increasing concentrations of compounds in 50 mM Tris-HCl, pH 9, for 30 minutes at 37° C. (Di Marzo et al., 2002). [^14C]ethanolamine produced from [^14C]anandamide hydrolysis was measured counting the scintillation of the aqueous phase after extraction of the incubation mixture with 2 volumes of CHCl3/CH3OH (2:1 by volume). […]

In a further data set the target is T5, CB1 (Rattus norvegicus, UniProt P20272).
T5 construct: from tissue; host or cells: rat brain membranes
T5 sequence (P20272 whole entry): as the sequence (P47746 whole entry) above, with D95E counted along it
The data set can be described thus: Preliminary selection with rat brain membranes. The note with it: rat brain and spleen membranes, read-out: CB1 (n.a. class, IC50 in preliminary selection). In kind it is binding.

Data set [8] deals with T6, CB1 cannabinoid receptors (Mus musculus, UniProt P47746).
T6 construct: N18TG2 mouse neuroblastoma cells, which constitutively and selectively express the CB 1 cannabinoid receptors; endogenous in cells; host or cells: N18TG2 mouse neuroblastoma cells
T6 sequence (P47746 whole entry): as the sequence (P47746 whole entry) above
Nature of the data set: Forskolin-induced cyclic AMP in N18TG2 neuroblastoma cells. In kind it is cell-based. Conditions: N18TG2 cells. Here is the method: as §1

For the next data set, the target named is T7, CB2 (Rattus norvegicus, UniProt Q9QZN9).
T7 construct: from tissue; host or cells: rat spleen membranes
T7 sequence (Q9QZN9 1-360): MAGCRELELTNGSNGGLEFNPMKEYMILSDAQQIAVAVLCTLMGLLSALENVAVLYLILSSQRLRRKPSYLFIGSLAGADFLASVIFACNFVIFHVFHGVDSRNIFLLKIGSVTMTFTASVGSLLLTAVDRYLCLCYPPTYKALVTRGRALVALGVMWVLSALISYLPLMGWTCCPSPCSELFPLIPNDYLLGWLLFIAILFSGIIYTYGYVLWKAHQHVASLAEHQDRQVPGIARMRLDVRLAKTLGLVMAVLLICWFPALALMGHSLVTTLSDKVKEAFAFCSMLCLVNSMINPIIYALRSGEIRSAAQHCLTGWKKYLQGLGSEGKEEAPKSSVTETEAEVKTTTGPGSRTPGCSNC
The data set can be described thus: Preliminary selection with rat spleen membranes. In kind it is binding. Conditions: rat brain and spleen membranes, read-out: CB2 (n.a. class, IC50 in preliminary selection).

The mark [9] stands for this setting: anandamide uptake, read-out: AMT IC50.
Where [10] appears, read: rat brain membranes, [14C]anandamide 6 μM, read-out: FAAH IC50.
[11] abbreviates: rat brain membranes, read-out: FAAH (n.a. class).
[12] abbreviates: recombinant human CB1, COS cell membranes.
[13] abbreviates: recombinant human CB2, COS cell membranes.

Where two headings read alike, the source gives them in different places. Some results are limits rather than exact numbers.

T2 sequence (P21554 whole entry): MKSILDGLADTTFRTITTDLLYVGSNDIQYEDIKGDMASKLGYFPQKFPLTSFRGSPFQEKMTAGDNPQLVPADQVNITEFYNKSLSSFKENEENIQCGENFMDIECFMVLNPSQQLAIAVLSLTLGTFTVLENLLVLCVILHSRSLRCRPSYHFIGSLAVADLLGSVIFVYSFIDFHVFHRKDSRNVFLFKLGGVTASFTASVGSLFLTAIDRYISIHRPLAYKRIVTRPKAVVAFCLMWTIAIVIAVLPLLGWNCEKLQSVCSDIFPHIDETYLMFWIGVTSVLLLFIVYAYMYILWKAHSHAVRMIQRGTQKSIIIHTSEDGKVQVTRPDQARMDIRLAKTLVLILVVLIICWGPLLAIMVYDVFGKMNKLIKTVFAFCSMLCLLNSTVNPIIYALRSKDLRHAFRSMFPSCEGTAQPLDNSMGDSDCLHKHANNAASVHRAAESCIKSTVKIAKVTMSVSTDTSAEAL

One may read the Ki as the dissociation constant of the complex between target and ligand, obtained from inhibition or displacement. Consider `CCCCCCc1ccc(O)cc1OCCCCCCCCCCC(=O)NC1CC1` [Compound 52, 11-(2-Hexyl-5-hydroxy-phenoxy)-undecanoic acid cyclopropylamide], for which the IC50 in data set [1] (setting [9]) stood at 13 µM; at CB1 receptors, 0.1 µM. In addition, on CB1 receptors (mouse brain membranes), the “functional behaviour in GTP-γ-S-binding” value is given as “agonist action”. In addition, the Ki in data set [2] (values in nM) was determined as 210 nM; in [3] (values in nM) it was 30 nM. Besides, the EC50 in data set [4] was 2.4 µM; in data set [5] (forskolin-induced cAMP formation, read-out: hCB2 EC50), above 10 µM. Further, the “hCB2 % effect with 10 μM” value in data set [5] (10 μM, forskolin-induced cAMP formation) was 5%. Besides, the “effect on forskolin-induced cAMP formation (in words)” value in [5] is “no significant effect”. Besides, the “antagonism of CP55940-induced stimulation of GTP-γ-S binding (in words)” value in data set [6] (CHO hCB2) is given as “block the effect of CP55940”. Besides, the “effect on GTP-γ-S-binding (in words)” value in data set [6] (CHO hCB2) is reported as “no significant stimulation or inhibition”. Moreover, in data set [6] (Test 1 and Test 2, CHO hCB2), the “functional behaviour at CB2 receptors” value is listed as “neutral (“silent”) antagonists”.
One may read the melting point as the temperature, or range, at which the solid turns liquid. In turn, `CCCCCCc1ccc(OCCCCCCCCCCC(=O)Nc2ccc(O)cc2)cc1O` [Compound 44, 11-(3-Hydroxy-4-hexyl-phenoxy)-undecanoic acid (4-hydroxy-phenyl)-amide] had a melting point of 121.2 °C. The IC50 in data set [7] (setting [10]) came to 50 µM. Further, in [1] (setting [9]), the IC50 is above 25 µM. Besides, on CB1, the IC50 is above 10 µM.
With `CCCCCCc1ccc(OCCCCCC(=O)NC2CC2)cc1O` [Compound 40, 6-(3-Hydroxy-4-hexyl-phenoxy)-hexanoic acid cyclopropylamide], the melting point was found to be 134.2 °C. The IC50 in data set [7] (setting [11]) was above 10 µM. Besides, the “functional behaviour at CB1 receptors” value in data set [8] (cAMP) is “inverse agonist/antagonist”. Also, the EC50 in data set [8] (forskolin 1 μM, read-out: half-maximum effect concentration, stimulation of forskolin-induced cAMP formation) came to 0.15 µM. The inhibition constant Ki in data set [2] (setting [12]) is 180 nM. Further, the Ki in data set [3] (setting [13]) is 540 nM.
On to `CCCCCCc1ccc(O)cc1OCCCCCCCCCCC(=O)Nc1ccc(O)cc1` [Compound 53, 11-(2-Hexyl-5-hydroxy-phenoxy)-undecanoic acid (4-hydroxy-phenyl)-amide], for which the melting point was 108.7 °C. The IC50 in data set [7] (setting [10]) came to 18 µM. For the same compound, the IC50 in data set [1] (setting [9]) is above 25 µM. For the same compound, in data set [2], the Ki was 3300 nM. In addition, the Ki in data set [3] (setting [13]) turned out to be 2110 nM.
As for `CCCCCc1cc(O)cc(OCCCCCCCCCCC(=O)NCCO)c1` [Compound 24, 11-(3-Hydroxy-5-pentyl-phenoxy)-undecanoic acid (2-hydroxy-ethyl)-amide], the melting point was 55 to 56 °C. The compound further yielded an IC50 in data set [7] above 10 µM. In addition, in [1] (setting [9]), the IC50 turned out to be 25 µM. For the same compound, the Ki in [2] (setting [12]) was 800 nM. Also, the Ki in data set [3] (setting [13]) amounted to 160 nM.
Take `CCCCCc1cc(O)cc(OCCCCCCCCCCC(=O)Nc2ccc(O)cc2)c1` [Compound 26, 11-(3-Hydroxy-5-pentyl-phenoxy)-undecanoic acid (4-hydroxy-phenyl)-amide]: the IC50 in data set [7] and in [1] (read-out: AMT (n.a. class)) was above 10 µM in each case. The Ki in data set [2] (setting [12]) was 3000 nM; in [3] (setting [13]), 1400 nM.
With `CCCCCCc1ccc(O)cc1OCCCCCCCCCCC(=O)NCCO` [Compound 51, 11-(2-Hexyl-5-hydroxy-phenoxy)-undecanoic acid (2-hydroxy-ethyl)-amide], the melting point was determined as 75.4 °C. This compound came in with an IC50 in data set [7] above 10 µM. The IC50 in data set [1] (setting [9]) is above 25 µM. For the same compound, the Ki in data set [3] (setting [13]) amounted to 420 nM.
Consider `CCCCCCc1ccc(OCCCCCCCCCCC(=O)NCCO)cc1O` [Compound 42, 11-(3-Hydroxy-4-hexyl-phenoxy)-undecanoic acid (2-hydroxy-ethyl)-amide], for which the melting point is 85.3 °C. Further, in [7] (setting [11]), the IC50 was above 10 µM. Further, the IC50 in data set [1] (read-out: AMT (n.a. class)) was above 10 µM. Moreover, in data set [3] (setting [13]), the Ki came to 2700 nM.
For the compound `CCCCCCc1ccc(OCCCCCCCCCCCCCCCC(=O)NCCO)cc1O` [Compound 45, 16-(3-Hydroxy-4-hexyl-phenoxy)-hexadecanoic acid (2-hydroxy-ethyl)-amide], the melting point was determined as 96.4 °C. Further, at CB1, the IC50 is above 10 µM. Further, the IC50 on CB2 is above 10 µM.
`O=C(CCCCCCCCCCOc1cccc(O)c1)Nc1ccc(O)cc1` [Compound 35, 11-(3-Hydroxy-phenoxy)-undecanoic acid (4-hydroxy-phenyl)-amide] came in with a melting point of 121.2 °C. In addition, the IC50 at CB1 is above 10 µM.
On to `CCCCCCc1ccc(O)cc1OCCCCCCCCCCCCCCCC(=O)NCCO` [Compound 54, 16-(2-Hexyl-5-hydroxy-phenoxy)-hexadecanoic acid (2-hydroxy-ethyl)-amide], for which the melting point was 77.2 °C. For the same compound, on CB1, the IC50 was above 10 µM. Moreover, on CB2, the IC50 was above 10 µM.
In the case of `CCCCCCc1ccc(OCCCCCCCCCCCCCCCC(=O)NC2CC2)cc1O` [Compound 46, 16-(3-Hydroxy-4-hexyl-phenoxy)-hexadecanoic acid cyclopropylamide], the melting point is 114.3 °C. The IC50 on CB1 was above 10 µM. Further, the IC50 on CB2 was above 10 µM.

(Values after US20090043129A1 (priority 2005, published 2009).)
